Like-named read-outs stand apart in the source and are kept apart here.
Tests used:
[1] = target: T1, human α1D‐adrenoceptor (full length) (Homo sapiens, UniProt P25100); assay: ERK1/2‐phosphorylation (Surefire Alphascreen), CHO‐α1D cells; assay type: cell-based
T1 construct: human α1D‐adrenoceptor (full length) were used; expressed in transfected cells; host or cells: CHO-K1
T1 sequence (P25100 1-572): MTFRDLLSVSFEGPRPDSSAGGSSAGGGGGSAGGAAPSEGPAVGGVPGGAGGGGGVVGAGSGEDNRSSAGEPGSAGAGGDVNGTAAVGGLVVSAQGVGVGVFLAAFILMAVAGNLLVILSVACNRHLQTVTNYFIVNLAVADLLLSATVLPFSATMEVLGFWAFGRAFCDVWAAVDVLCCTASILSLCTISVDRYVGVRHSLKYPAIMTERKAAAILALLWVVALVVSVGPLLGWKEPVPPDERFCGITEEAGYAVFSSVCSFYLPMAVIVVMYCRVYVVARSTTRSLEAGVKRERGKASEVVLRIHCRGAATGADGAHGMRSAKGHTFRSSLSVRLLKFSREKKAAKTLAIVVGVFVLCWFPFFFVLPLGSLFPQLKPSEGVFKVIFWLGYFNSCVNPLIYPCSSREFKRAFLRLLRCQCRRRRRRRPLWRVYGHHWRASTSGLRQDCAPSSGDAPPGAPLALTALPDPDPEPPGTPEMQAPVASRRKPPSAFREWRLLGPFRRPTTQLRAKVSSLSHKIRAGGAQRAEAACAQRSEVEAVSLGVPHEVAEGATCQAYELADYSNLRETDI

[2] = tested on: parental CHO cell line without any transfected receptors; assay: Forskolin‐stimulated cAMP accumulation, parent CHO cells without transfected receptors; assay type: cell-based, Chinese hamster; conditions: CHO cells without transfected receptors; in presence of forskolin
[3] = target: T2, human α1A‐adrenoceptor (Homo sapiens, UniProt P35348); assay: Intracellular free calcium mobilization, CHO‐α1A cells; assay type: cell-based
T2 construct: expressed in transfected cells; host or cells: CHO-K1
T2 sequence (P35348 1-466): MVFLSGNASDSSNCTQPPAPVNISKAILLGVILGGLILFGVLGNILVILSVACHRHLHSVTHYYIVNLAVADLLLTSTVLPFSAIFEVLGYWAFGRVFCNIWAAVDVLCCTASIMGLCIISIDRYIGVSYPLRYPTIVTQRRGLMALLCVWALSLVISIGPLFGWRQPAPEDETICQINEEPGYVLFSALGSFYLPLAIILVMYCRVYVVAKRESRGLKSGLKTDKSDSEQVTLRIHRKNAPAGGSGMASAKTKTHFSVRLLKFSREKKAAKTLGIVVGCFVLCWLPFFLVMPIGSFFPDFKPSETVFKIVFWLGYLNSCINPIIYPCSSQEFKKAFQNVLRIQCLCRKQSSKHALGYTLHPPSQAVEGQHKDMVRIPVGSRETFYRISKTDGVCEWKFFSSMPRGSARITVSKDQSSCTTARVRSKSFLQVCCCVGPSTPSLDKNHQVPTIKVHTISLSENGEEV

[4] = target: T1, human α1D‐adrenoceptor (full length); assay: ^3H‐cAMP accumulation, CHO‐α1D cells; assay type: cell-based; conditions: cAMP accumulation without forskolin
[5] = target: T1, human α1D‐adrenoceptor (full length); assay: Intracellular free calcium mobilization, CHO‐α1D cells; assay type: cell-based
[6] = target: T1, human α1D‐adrenoceptor (full length); assay: ^3H‐prazosin whole‐cell radioligand binding, CHO‐α1D cells
[7] = target: T2, human α1A‐adrenoceptor; assay: ^3H‐prazosin whole‐cell radioligand binding, CHO‐α1A cells
[8] = target: T2, human α1A‐adrenoceptor; assay: ^3H‐cAMP accumulation, CHO‐α1A cells; assay type: cell-based; conditions: CHO‐α1A cells; for cAMP accumulation % forskolin: % of 10 µM forskolin response
[9] = tested on: parental CHO cell line without any transfected receptors; assay: ERK1/2‐phosphorylation, parent CHO cells without transfected receptors; assay type: cell-based, Chinese hamster; conditions: Cricetulus griseus, CHO; read-out: ERK1/2-phosphorylation % PDBu at 100μM
[10] = target: T2, human α1A‐adrenoceptor; assay: ^3H‐cAMP accumulation in the presence of 10 μM forskolin, CHO‐α1A cells; assay type: cell-based; conditions: CHO‐α1A cells
[11] = target: T2, human α1A‐adrenoceptor; assay: ERK1/2‐phosphorylation (Surefire Alphascreen), CHO‐α1A cells; assay type: cell-based
[12] = tested on: parental CHO cell line without any transfected receptors; assay: Intracellular calcium mobilization, parent CHO cells without transfected receptors; assay type: cell-based, Chinese hamster; conditions: Cricetulus griseus; CHO cells without transfected receptors; response at maximum concentration used (c2), as % of ionomycin (10μM) response; mean ± s.e.m.; read-out: Intracellular calcium release % ionomycin
[13] = target: T1, human α1D‐adrenoceptor (full length); assay: ^3H‐cAMP accumulation in the presence of 10 μM forskolin, CHO‐α1D cells; assay type: cell-based; conditions: CHO‐α1D cells; for cAMP (in presence of forskolin) Log EC50: log values given negative
[14] = target: T3, human α1B‐adrenoceptor (Homo sapiens, UniProt P35368); assay: ^3H‐cAMP accumulation in the presence of 10 μM forskolin, CHO‐α1B cells; assay type: cell-based; conditions: CHO‐α1B cells
T3 construct: expressed in transfected cells; host or cells: CHO-K1
T3 sequence (P35368 1-520): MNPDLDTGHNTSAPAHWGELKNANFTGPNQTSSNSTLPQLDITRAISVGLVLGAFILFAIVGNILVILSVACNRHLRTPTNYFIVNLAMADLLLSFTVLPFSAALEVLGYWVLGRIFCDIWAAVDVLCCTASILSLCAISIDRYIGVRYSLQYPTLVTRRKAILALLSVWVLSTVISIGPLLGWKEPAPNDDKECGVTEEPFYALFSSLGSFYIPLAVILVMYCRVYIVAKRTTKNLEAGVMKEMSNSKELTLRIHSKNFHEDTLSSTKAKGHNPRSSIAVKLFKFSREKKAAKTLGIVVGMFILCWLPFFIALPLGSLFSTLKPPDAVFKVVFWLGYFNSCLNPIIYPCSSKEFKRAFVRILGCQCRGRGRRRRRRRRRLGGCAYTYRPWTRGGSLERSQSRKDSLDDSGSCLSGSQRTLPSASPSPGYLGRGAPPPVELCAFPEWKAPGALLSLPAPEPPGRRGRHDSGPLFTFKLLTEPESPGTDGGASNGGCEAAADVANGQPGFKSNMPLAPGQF

[15] = target: T3, human α1B‐adrenoceptor; assay: ^3H‐prazosin whole‐cell radioligand binding, CHO‐α1B cells; conditions: CHO‐α1B cells
[16] = target: T3, human α1B‐adrenoceptor; assay: Intracellular free calcium mobilization, CHO‐α1B cells; assay type: cell-based; conditions: CHO‐α1B cells
[17] = target: T3, human α1B‐adrenoceptor; assay: ^3H‐cAMP accumulation, CHO‐α1B cells; assay type: cell-based; conditions: CHO‐α1B cells
[18] = target: T3, human α1B‐adrenoceptor; assay: ERK1/2‐phosphorylation (Surefire Alphascreen), CHO‐α1B cells; assay type: cell-based; conditions: CHO‐α1B cells, for bi‐phasic responses the initial stimulatory part
[19] = CHO‐α1D cells, log values given negative
[20] = fold increase of the forskolin response

In the case of N=C(N)N/N=C/c1c(Cl)cccc1Cl [Guanabenz], the “ERK1/2‐phosphorylation % PDBu at 100 µM” value [1] is reported as 20.8 ± 6.6%, the “cAMP accumulation (in presence of forskolin) Log EC50” value [2] is reported as “No response” and the “Intracellular calcium release % ionomycin” value [3] is reported as 17.8 ± 3.2%. The EC50 ([3]; CHO‐α1A cells, given as log EC50 (negative), read-out: Intracellular calcium release Log EC50 (converted)) was 110 nM, the “cAMP Log EC50” value [4] was “No response” and the “Intracellular calcium release % Ionomycin at 100 µM” value [5] was 20.2 ± 5.1%. For the same compound, the Kd ([6]; 3H‐prazosin binding Log KD, CHO‐α1D cells, whole‐cell binding (from Table 1), log values given negative) was 955 nM, the Kd ([6]; Log KD α1D, ^3H‐prazosin whole cell binding, CHO‐α1D cells, given as log KD (negative), mean ± SEM, 'early plateau' = specific binding not fully inhibited) was 955 nM and the Kd ([7]; Log KD α1A, ^3H‐prazosin whole cell binding, CHO‐α1A cells, given as log KD (negative), mean ± SEM) was 331 nM. The EC50 ([8]; 5 h, read-out: cAMP accumulation Log EC50 (converted)) was 1820 nM, the “cAMP accumulation % forskolin” value [8] was 2.1 ± 0.3% and the Emax at 100 µM [9] was 8.5 ± 3.1%. The EC50 ([10]; 10 μM forskolin, read-out: cAMP accumulation (in presence of forskolin) Log EC50 (converted)) was 145 nM, the “ERK1/2‐phosphorylation % PDBu” value [11] was 68.4 ± 8.6% and the EC50 ([11]; CHO‐α1A cells, 2–4 min, ^a bi‐phasic: initial stimulatory part, ^b also active in parent CHO cells, read-out: ERK1/2‐phosphorylation Log EC50 (converted)) was 204 nM. For the same compound, the Emax [12] was 23.5 ± 7.4% and the “cAMP (in presence of forskolin) Log EC50” value [13] was “No response”.
CCc1cccc(CC)c1NC1=NCCN1 [ST‐91] was tested, and the “ERK1/2‐phosphorylation Log EC50” value [1, 19] was −5.23 ± 0.21, the “ERK1/2‐phosphorylation % PDBu” value ([1]; CHO‐α1D cells, maximal response as % of PDBu) was 21.1 ± 4.4% and the “Log efficacy ratio KD /EC50” value ([3]; CHO‐α1A cells, binding KD and calcium EC50) was 3.14. For the same compound, the “Intracellular calcium release Log EC50” value ([3]; CHO‐α1A cells, given as log EC50 (negative)) was −9.08 ± 0.11, the “Intracellular calcium release % ionomycin” value ([3]; CHO‐α1A cells, maximal response as % of 10 µM ionomycin) was 64.6 ± 2.6% and the “cAMP Log EC50” value [4] was “No response”. The “Log efficacy ratio KD /EC50” value ([5]; CHO‐α1D cells, intrinsic efficacy ratio, binding KD / calcium EC50) was 1.10, the “Intracellular calcium release Log EC50” value [5, 19] was −6.34 ± 0.15 and the “Intracellular calcium release % ionomycin” value ([5]; CHO‐α1D cells, maximal response as % of 10 µM ionomycin) was 6.3 ± 1.6%. For the same compound, the “cAMP accumulation (in presence of forskolin) Fold increase” value [14, 20] was 2.34 ± 0.09 fold, the “cAMP accumulation (in presence of forskolin) Log EC50” value ([14]; in presence of forskolin) was −7.23 ± 0.07 and the “3H‐prazosin binding Log KD” value ([6]; CHO‐α1D cells, whole‐cell binding (from Table 1), log values given negative) was −5.24. For the same compound, the “Log KD α1D, ^3H‐prazosin whole cell binding” value ([6]; CHO‐α1D cells, given as log KD (negative), mean ± SEM, 'early plateau' = specific binding not fully inhibited) was −5.24 ± 0.09, the “Affinity selectivity ratio α1B vs α1D” value ([6]; higher affinity for α1D than α1B) was 7.1 fold and the “Log KD α1A, ^3H‐prazosin whole cell binding” value ([7]; CHO‐α1A cells, given as log KD (negative), mean ± SEM) was −5.94 ± 0.01. For the same compound, the “Affinity selectivity ratio α1A vs α1B” value ([7]; higher affinity for α1A than α1B) was 35.5 fold, the “Affinity selectivity ratio α1A vs α1D” value ([7]; higher affinity for α1A than α1D) was 5.0 fold and the “cAMP accumulation Log EC50” value ([8]; 5 h) was −6.80 ± 0.05. The “cAMP accumulation % forskolin” value [8] was 108.2 ± 12.5%, the “cAMP accumulation (in presence of forskolin) Log EC50” value ([10]; 10 μM forskolin) was −7.86 ± 0.14 and the “cAMP accumulation (in presence of forskolin) Fold increase” value [10, 20] was 2.17 ±.10 fold. For the same compound, the “Log KD, ^3H‐prazosin binding” value ([15]; whole‐cell binding (from Table 1), given as log KD (negative numbers)) was −4.39, the “Log KD α1B, ^3H‐prazosin whole cell binding” value ([15]; given as log KD (negative), mean ± SEM) was −4.39 ± 0.04 and the “ERK1/2‐phosphorylation Log EC50” value ([11]; CHO‐α1A cells, 2–4 min, ^a bi‐phasic: initial stimulatory part, ^b also active in parent CHO cells) was −8.70 ± 0.06. The “ERK1/2‐phosphorylation % PDBu” value ([11]; CHO‐α1A cells, % of 10 µM PDBu, ^a bi‐phasic: initial stimulatory part) was 79.5 ± 5.2%, the “Intracellular calcium release Log EC50” value ([16]; given as log EC50 (negative numbers)) was −8.13 ± 0.17 and the “Log efficacy ratio KD /EC50” value ([16]; intrinsic efficacy ratio, KD from binding / EC50 calcium, log) was 3.74. For the same compound, the “Intracellular calcium release % ionomycin” value ([16]; maximal response as % of 10 µM ionomycin response) was 62.0 ± 2.1%, the “cAMP (in presence of forskolin) Fold increase” value [13, 20] was “No response” and the “cAMP (in presence of forskolin) Log EC50” value [13] was “No response”. The “cAMP accumulation Log EC50” value [17] was −6.52 ± 0.04, the “cAMP accumulation % forskolin” value ([17]; % forskolin maximum response) was 30.4 ± 3.5% and the “ERK1/2‐phosphorylation Log EC50” value [18] was −7.33 ± 0.12. The “ERK1/2‐phosphorylation % PDBu” value ([18]; maximal response as % PDBu response) was 83.6 ± 8.9%.
